Laboratory results published in patent US11229608B2 (priority 2019, dated 2022).
Entries after “also recorded” stand apart in the source; their conditions may differ.

System: ornamental vinca (vincire) plants
Test: Phytotoxicity assessment on vinca plants after foliar application
Assay type: in vivo
Design: key to Phytotoxicity rating: −: non-phytotoxic; +: minimal phytotoxic; ++: moderate phytotoxic; +++: heavy phytotoxic
Conditions: 72 hours; for Phytotoxicity rating: visual
Protocol: Ornamental vinca plants are susceptible to metal phytotoxicity such as Cu and used as industry standard. 3 plants were foliar sprayed with each treatments and controls at three different rates, 300 ppm, 600 ppm and 1,000 ppm. Test solutions were foliar applied using hand-operated pump mist sprayer till run off. Afterwards, plants were placed in plant growth chamber (Panasonic MLR-325H-PA) programmed to simulate summer conditions (maximum temperature set at 31° C.). Visual observations were conducted after 72 hours application to assess the overall plant health and phytotoxicity rating.
The assessment was done visually based on size and number of burns on plants after 72 hours of foliar application. Vinca (vincire) plant phytotoxicity rating on a scale of “−” non-phytotoxic, “+” minimal phytotoxic, “++” moderate phytotoxic, and (+++) heavy phytotoxic.

| Compound | phytotoxicity (in words) (1,000 μg/ml (ppm)) | Phytotoxicity rating (metal concentration 1000 μg/ml) | phytotoxicity (in words) (300 μg/ml) | phytotoxicity (in words) (600 μg/ml) | Phytotoxicity rating (metal concentration 300 μg/ml) | Phytotoxicity rating (metal concentration 600 μg/ml) |
| --- | --- | --- | --- | --- | --- | --- |
| O=[N+]([O-])[O-].O=[N+]([O-])[O-].[Cu+2] [Copper nitrate] | severely phytotoxic | +++ |  |  |  |  |
| O=[N+]([O-])[O-].O=[N+]([O-])[O-].[Zn+2] [Zinc nitrate] | moderately phytotoxic | ++ | non-phytotoxic | moderately phytotoxic; also recorded: minimally phytotoxic | − | + |
